Test results taken from patent US9115059B2, “Oxime derivatives of 3,5-seco-4-nor-cholestane, pharmaceutical compositions containing same, and method for preparing same” (TROPHOS, priority 2008, dated 2015).

What was measured:
motoneurons = experiment: Survival of motoneurons under trophic deprivation in vitro (calcein fluorescence); assay type: cell-based; conditions: E14 rat motoneurons, 3 days of culture in Neurobasal medium without trophic factors
Source text: It may be useful to refer to patent application WO 0142784 of the applicant regarding culture of the motoneurons of the spinal cord.
The spinal cord of E14 rat embryos is dissected and the ventral part is dissociated by trituration after trypsinization.
The motoneurons are separated from the other spinal cells by a known method (Camu et al., 1993, Purification of spinal motoneurons from chicken and rat embryos by immunopanning. In “Immunoselection Strategies for Neural cell culture”, Neuroprotocols: A companion to Methods in Neurosciences 2, 191-199; Henderson et al., 1993, Neutrophins promote motoneuron survival and are present in embryonic limb bud. Nature 363 (6426):266-70).
The cells are centrifuged on a density gradient. The motoneurons are enriched in the fraction of large cells (the […]). The cells of this fraction are incubated with an anti-p75 antibody, a surface antigen present on motoneurons.
Secondary antibodies coupled to magnetic beads are added and the mixture of cells is passed through a column in a magnet (Arce et al., 1999 Cardiotrophin-1 requires LIFRbeta to promote survival of mouse motoneurons purified by a novel technique. J. Neurosci Res 55(1): 119-26). Only the motoneurons are retained: their purity is of the order of 90%.
The motoneurons are seeded at low density in culture wells on a polyornithine-laminin substrate in a Neurobasal medium (GIBCO) supplemented according to Raoul et al., 1999, Programmed cell death of embryonic motoneurons triggered through the Fas death receptor. J Cell Biol 147(5):1049-62.
Negative controls (absence of trophic factors) and positive controls (in the presence of BDNF (Brain-Derived Neurotrophic Factor) at 1 ng/ml, GDNF (Glial-Derived Neurotrophic Factor) at 1 ng/ml and CNTF (Ciliary Neurotrophic Factor) at 10 ng/ml, marketed by the American company PEPROTECH, Inc. and the company Sigma-Aldrich, are included in each series.
The test compounds are added 60 minutes after seeding and the cultures are kept at 37° C. under 5% CO2 for 3 days.
The motoneurons have a spontaneous tendency to die in the absence of neurotrophic factors (Pettmann and Henderson, 1998, Neuronal cell death. Neuron 20(4):633-47). After 3 days, survival is evaluated by measurement of fluorescence after incubation of the cells in the presence of calcein, which becomes fluorescent in living cells.
After 3 days of culture at 37° C., under 5% CO2 and at saturating humidity, up to 50% of the motoneurons seeded initially survive in the medium supplemented with neurotrophic factors, whereas less than 15% of the motoneurons survive in the culture medium without addition of neurotrophic factors.
The neuroprotective activity of the test compounds was evaluated by their capacity for preventing death of motoneurons when they are added to the Neurobasal medium (GIBCO) in comparison with the survival of motoneurons in the medium to which neurotrophic factors were added.
This survival rate is expressed by the number of living cells after treatment with the test compound relative to the survival induced by the neurotrophic factors. This ratio can therefore represent the percentage survival due to the compound tested relative to the survival induced by the neurotrophic factors. If the ratio is greater than 0, the compounds have a positive effect on survival of the motoneurons.

[1] = system: avidins (streptavidin or neutravidin); conditions: cited from earlier work

Compound: CCC(C=CC(C)C1CCC2C3CCC(=NO)C(C)(CCCO)C3CCC12C)C(C)C (stereo not drawn) [Compound 12, 24β-ethyl-4-nor-3,5-secocholest-22-en-3-ol-5-one oxime]
- Ratio (living cells after treatment with the test compound relative to the survival induced by the neurotrophic factors) (motoneurons; concentration 1 μM): >0.2

Compound: 7-hydroxyamino-4-nor-3,5-secocholest-6-year-3-ol-5-one oxime [Compound 9]
- Ratio (living cells after treatment with the test compound relative to the survival induced by the neurotrophic factors) (motoneurons; concentration 1 μM): >0.2

Compound: CC(CCCC(C)(C)F)C1CCC2C3CCC(=NO)C(C)(CCCO)C3CCC12C (stereo not drawn) [Compound 6, 25-fluoro-4-nor-3,5-secocholestan-3-ol-5-one oxime]
- Ratio (living cells after treatment with the test compound relative to the survival induced by the neurotrophic factors) (motoneurons; concentration 3 μM): >0.2

Compound: CC(C)CCCC(C)C1CCC2C3CCC(=NO)C(C)(CCC(O)C(F)(F)F)C3CCC12C (stereo not drawn) [Compound 3, 4-nor-3,5-seco-3-(trifluoromethyl)cholestan-3-ol-5-one oxime]
- Ratio (living cells after treatment with the test compound relative to the survival induced by the neurotrophic factors) (motoneurons; concentration 1 μM): >0.2

Compound: CCCC1(C)C(=NO)CCC2C1CCC1(C)C(C(C)CCCC(C)C)CCC21 (stereo not drawn) [Compound 7, 4-nor-3,5-secocholestan-5-one oxime]
- Ratio (living cells after treatment with the test compound relative to the survival induced by the neurotrophic factors) (motoneurons; concentration 1 μM): >0.2

Compound: CC(CCCC(C)(C)O)C1CCC2C3CCC(=NO)C(C)(CCCO)C3CCC12C (stereo not drawn) [Compound 2, 4-nor-3,5-secocholestan-3,25-diol-5-one oxime]
- Ratio (living cells after treatment with the test compound relative to the survival induced by the neurotrophic factors) (motoneurons; concentration 3 μM): >0.2

Compound: CC(C)CCC[C@@H](C)[C@H]1CCC2C3CC/C(=N/O)[C@](C)(CCCN(C)c4ccc([N+](=O)[O-])c5nonc45)C3CC[C@@]21C (stereo partly drawn) [Compound 5, 3-[methyl-(7-nitro-2,1,3-benzoxadiazol-4-yl)amino]-4-nor-3,5-secocholestan-5-one oxime]
- Ratio (living cells after treatment with the test compound relative to the survival induced by the neurotrophic factors) (motoneurons; concentration 1 μM): >0.2

Compound: CC(C)CCC[C@@H](C)[C@H]1CCC2C3CC/C(=N/O)[C@](C)(CCCN(C)C(=O)CCCC[C@@H]4SC[C@@H]5NC(=O)N[C@@H]54)C3CC[C@@]21C (stereo partly drawn) [Compound 4, 3-[(N-(+)-biotinoyl-N-methyl)amino]-4-nor-3,5-secocholestan-5-one oxime]
- Ratio (living cells after treatment with the test compound relative to the survival induced by the neurotrophic factors) (motoneurons; concentration 0.3 μM): >0.2

Compound: CC(C)CCCC(C)C1CCC2C3CCC(=NO)C(C)(CCO)C3CCC12C (stereo not drawn) [Compound 10, 3,4-dinor-2,5-secocholestan-2-ol-5-one oxime]
- Ratio (living cells after treatment with the test compound relative to the survival induced by the neurotrophic factors) (motoneurons; concentration 1 μM): >0.2

Compound: CC(C)CCCC(C)C1CCC2C3C=CC(=NO)C(C)(CCCO)C3CCC12C (stereo not drawn) [Compound 8, 4-nor-3,5-secocholest-6-en-3-ol-5-one oxime]
- Ratio (living cells after treatment with the test compound relative to the survival induced by the neurotrophic factors) (motoneurons; concentration 1 μM): >0.2

Compound: CC(C)=CCCC(C)C1CCC2C3CCC(=NO)C(C)(CCCO)C3CCC12C (stereo not drawn) [Compound 11, 4-nor-3,5-secocholest-24-en-3-ol-5-one oxime]
- Ratio (living cells after treatment with the test compound relative to the survival induced by the neurotrophic factors) (motoneurons; concentration 1 μM): >0.2

Compound: O=C(O)CCCC[C@@H]1SC[C@@H]2NC(=O)N[C@@H]21 [biotin]
- Ka (affinity of avidins for biotin) [1]: ~10^7 M
